ChEMBL document CHEMBL1909046, “DrugMatrix in vitro pharmacology data”

Assays:
[1] = target: Adenosine receptor A2a (Homo sapiens, UniProt P29274); test: DRUGMATRIX: Adenosine A2A radioligand binding (ligand: […]); assay type: cell membranes, HEK293, Membrane; conditions: hek293; Not Active = under 50% inhibition at 10 µM
[2] = target: Matrix metalloproteinase-9 (Homo sapiens, UniProt P14780); test: biochemical; assay type: cell-based;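 note: inhibition of isolated MMP-9 enzyme activity toward a synthetic peptide substrate, from the DrugMatrix protease screening panel; in other assays of this panel Not Active means under 50% inhibition at 10 µM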
Matrix metalloproteinase-9, sequence (P14780 whole entry): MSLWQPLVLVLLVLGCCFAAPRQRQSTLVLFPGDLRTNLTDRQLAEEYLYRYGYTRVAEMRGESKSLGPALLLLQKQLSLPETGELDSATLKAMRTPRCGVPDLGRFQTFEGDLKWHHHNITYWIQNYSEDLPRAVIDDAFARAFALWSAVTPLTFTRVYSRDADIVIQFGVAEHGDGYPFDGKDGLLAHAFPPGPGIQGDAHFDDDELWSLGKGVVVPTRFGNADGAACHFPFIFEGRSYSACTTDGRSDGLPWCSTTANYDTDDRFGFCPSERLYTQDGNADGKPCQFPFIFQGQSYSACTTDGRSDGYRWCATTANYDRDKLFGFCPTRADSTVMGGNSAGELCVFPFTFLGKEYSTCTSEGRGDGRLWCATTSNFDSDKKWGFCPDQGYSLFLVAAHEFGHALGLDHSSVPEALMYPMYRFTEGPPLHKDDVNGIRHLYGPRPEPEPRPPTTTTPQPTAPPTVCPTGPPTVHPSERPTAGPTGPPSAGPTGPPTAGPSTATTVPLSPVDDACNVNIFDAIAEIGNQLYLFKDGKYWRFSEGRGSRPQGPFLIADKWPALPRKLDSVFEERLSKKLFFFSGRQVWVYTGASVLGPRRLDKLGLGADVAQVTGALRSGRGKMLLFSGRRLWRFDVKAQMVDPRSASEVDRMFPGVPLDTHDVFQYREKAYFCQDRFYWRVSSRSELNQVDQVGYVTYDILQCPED

[3] = target: T1, Glucocorticoid receptor (Homo sapiens, UniProt P04150); conditions: hela s3; note: in other assays of this panel Not Active means under 50% inhibition at 10 µM
T1 sequence (P04150 whole entry): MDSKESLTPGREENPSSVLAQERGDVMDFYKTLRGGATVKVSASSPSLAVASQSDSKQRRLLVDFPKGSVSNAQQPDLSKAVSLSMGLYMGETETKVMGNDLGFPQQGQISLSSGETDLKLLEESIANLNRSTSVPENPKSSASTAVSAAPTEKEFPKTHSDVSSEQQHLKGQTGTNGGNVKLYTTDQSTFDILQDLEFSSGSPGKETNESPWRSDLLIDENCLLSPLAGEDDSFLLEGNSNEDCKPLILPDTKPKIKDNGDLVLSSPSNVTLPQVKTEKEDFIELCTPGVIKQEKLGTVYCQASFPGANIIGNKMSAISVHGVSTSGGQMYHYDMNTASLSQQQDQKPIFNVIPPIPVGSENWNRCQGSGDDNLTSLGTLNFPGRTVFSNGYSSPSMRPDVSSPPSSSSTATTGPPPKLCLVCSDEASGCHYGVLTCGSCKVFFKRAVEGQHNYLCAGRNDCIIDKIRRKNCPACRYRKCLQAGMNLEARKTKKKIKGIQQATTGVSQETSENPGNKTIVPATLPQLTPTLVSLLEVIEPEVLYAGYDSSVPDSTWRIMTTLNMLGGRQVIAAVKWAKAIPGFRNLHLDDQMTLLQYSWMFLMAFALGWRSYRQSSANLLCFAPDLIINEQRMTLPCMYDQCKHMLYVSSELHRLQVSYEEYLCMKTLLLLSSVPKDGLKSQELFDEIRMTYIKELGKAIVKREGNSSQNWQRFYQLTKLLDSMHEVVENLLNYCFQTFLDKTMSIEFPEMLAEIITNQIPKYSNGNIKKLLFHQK

[4] = DRUGMATRIX: beta-Lactamase enzyme inhibition (substrate: Nitrocefin); set-up: species or system Bacillus cereus; conditions: Not Active = under 50% inhibition at 10 µM
[5] = target: Vasopressin V1a receptor (Homo sapiens, UniProt P37288); assay type: cell membranes, Membrane; conditions: hek293; note: in other assays of this panel Not Active means under 50% inhibition at 10 µM
Vasopressin V1a receptor, sequence (P37288 whole entry): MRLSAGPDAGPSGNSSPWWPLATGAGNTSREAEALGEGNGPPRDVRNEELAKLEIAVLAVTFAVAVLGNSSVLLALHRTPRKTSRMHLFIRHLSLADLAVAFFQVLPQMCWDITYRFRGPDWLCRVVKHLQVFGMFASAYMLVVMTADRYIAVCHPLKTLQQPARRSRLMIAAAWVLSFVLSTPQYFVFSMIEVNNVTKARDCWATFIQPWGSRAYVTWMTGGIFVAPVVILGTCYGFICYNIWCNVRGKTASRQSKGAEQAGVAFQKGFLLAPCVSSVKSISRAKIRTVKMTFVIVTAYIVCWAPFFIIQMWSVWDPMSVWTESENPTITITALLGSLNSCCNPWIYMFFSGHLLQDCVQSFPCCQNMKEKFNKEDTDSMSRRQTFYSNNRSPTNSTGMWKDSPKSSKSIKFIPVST

[6] = target: T2, Estrogen receptor (Homo sapiens, UniProt P03372); conditions: sf9; note: in other assays of this panel Not Active means under 50% inhibition at 10 µM
T2 sequence (P03372 whole entry): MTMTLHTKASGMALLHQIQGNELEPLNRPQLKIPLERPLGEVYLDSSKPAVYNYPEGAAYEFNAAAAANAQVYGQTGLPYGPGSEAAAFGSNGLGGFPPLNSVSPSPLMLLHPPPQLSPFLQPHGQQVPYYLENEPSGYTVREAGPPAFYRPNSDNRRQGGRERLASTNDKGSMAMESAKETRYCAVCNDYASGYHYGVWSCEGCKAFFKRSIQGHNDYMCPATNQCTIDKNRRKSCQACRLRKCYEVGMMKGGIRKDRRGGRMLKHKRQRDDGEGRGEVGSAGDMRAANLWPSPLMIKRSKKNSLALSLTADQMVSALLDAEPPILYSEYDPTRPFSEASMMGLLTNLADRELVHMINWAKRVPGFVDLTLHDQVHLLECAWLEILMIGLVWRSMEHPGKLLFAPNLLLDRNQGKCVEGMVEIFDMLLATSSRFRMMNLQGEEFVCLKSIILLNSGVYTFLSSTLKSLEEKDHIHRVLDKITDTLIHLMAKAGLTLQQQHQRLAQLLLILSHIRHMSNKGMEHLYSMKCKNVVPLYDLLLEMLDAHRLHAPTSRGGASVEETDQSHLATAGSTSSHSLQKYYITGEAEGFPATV

[7] = target: 5-hydroxytryptamine receptor 4 (Cavia porcellus, UniProt O70528); assay type: cell membranes, Dunkin-Hartley, Striatum, Membrane; note: in other assays of this panel Not Active means under 50% inhibition at 10 µM
5-hydroxytryptamine receptor 4, sequence (O70528 whole entry): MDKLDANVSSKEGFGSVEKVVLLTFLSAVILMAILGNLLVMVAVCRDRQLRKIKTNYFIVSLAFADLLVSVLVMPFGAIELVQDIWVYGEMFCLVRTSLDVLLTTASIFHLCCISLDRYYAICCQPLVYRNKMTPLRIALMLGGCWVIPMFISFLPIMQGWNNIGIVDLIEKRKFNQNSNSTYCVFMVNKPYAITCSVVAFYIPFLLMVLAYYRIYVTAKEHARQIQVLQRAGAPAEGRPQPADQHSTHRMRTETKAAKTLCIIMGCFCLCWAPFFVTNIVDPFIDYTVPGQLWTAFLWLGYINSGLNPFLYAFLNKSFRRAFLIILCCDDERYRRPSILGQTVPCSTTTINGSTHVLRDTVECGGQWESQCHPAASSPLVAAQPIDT

[8] = DRUGMATRIX: Glutamate, AMPA radioligand binding (ligand: [3H] AMPA); assay type: cell membranes, Rattus norvegicus, Wistar, Cerebral cortex, Membrane; conditions: Not Active = under 50% inhibition at 10 µM

Adenosine receptor A2a, sequence (P29274 whole entry): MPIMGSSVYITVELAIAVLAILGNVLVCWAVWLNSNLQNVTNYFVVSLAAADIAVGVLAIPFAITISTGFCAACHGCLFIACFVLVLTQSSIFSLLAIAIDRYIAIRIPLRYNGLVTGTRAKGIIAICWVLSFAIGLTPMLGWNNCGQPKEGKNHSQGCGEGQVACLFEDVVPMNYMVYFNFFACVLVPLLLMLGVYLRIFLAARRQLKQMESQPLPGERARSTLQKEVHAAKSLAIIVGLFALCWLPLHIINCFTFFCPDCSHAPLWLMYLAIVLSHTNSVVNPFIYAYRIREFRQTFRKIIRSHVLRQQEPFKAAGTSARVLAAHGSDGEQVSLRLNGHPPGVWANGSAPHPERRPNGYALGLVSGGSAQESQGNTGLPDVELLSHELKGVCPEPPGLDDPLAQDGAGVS

Cc1cn([C@H]2C[C@H](N=[N+]=[N-])[C@@H](CO)O2)c(=O)[nH]c1=O [ZIDOVUDINE]
Not Active: IC50 [1] | IC50 [2] | IC50 [3] | IC50 [4] | Ki [4] | IC50 [5] | IC50 [6] | IC50 [7] | IC50 [8] | Ki [8]

STANNOUS FLUORIDE
Not Active: IC50 [1] | Ki [1] | IC50 [2] | Ki [2] | IC50 [3] | Ki [3] | IC50 [4] | Ki [4] | IC50 [5] | Ki [5] | IC50 [6] | Ki [6] | IC50 [7] | Ki [7] | IC50 [8] | Ki [8]

THIMEROSAL
Not Active: IC50 [1] | Ki [1] | IC50 [2] | Ki [2] | IC50 [3] | Ki [3] | IC50 [4] | Ki [4] | IC50 [5] | Ki [5] | IC50 [6] | Ki [6] | IC50 [7] | Ki [7] | IC50 [8] | Ki [8]
